The record followed here is patent publication US8841083B2, “PSA capture agents, compositions, methods and preparation thereof” (California Institute of Technology, priority 2011, dated 2014).

The target in assay [1] is T1, free PSA (Homo sapiens, UniProt P07288).
T1 construct: purchased Scripps Laboratories P0725
The assay is described as follows: Enzyme activity assay of PSA with chymotrypsin substrate Suc-Arg-Pro-Tyr-pNA. The assay is classed as biochemical. To be noted: for minimum peptide concentration affecting the activity: PSA 333 nM. As for the experimental part: The enzyme activity of free PSA was studied in the presence of capture agent and the chymotrypsin substrate Suc-Arg-Pro-Tyr-pNA (AnaSpec, San Jose, Calif.) (see, e.g., Wu 2000). PSA (333 nM) was incubated with a 1-100-fold fold molar excess of capture agent in TBS (25 mM Tris, 150 mM NaCl) buffer, pH 7.8, for 1 hour at 23° C. Separately, the inhibitory effect of Zn^2+ on the enzyme activity of PSA was studied by including 1-200 μM ZnCl2 in the reaction buffer as a control. After addition of substrate to a final concentration 0.4 mM, the absorbance was monitored at 5-min intervals over 80 min at 405 nm on a Beckman Coulter DTX880 photometer (Brea, Calif.). Enzyme activity of PSA was tested in the absence of both Zn^2+ and capture agent to provide a measure of basal activity. All assays were performed in triplicate.

Assay [2] deals with T1, free PSA. Nature of the assay: Dot blot of serially diluted free PSA probed with biotinylated capture agent. Format: binding. To be noted: for lower limit of detection: free PSA on nitrocellulose, 0.1 μM capture agent. How it is done: Serially diluted free PSA (Scripps Laboratories #P0725) in PBS pH 7.4 was applied to nitrocellulose by micropipette. The membrane was blocked at 4° C. for 2 hours in 5% non-fat dry milk in TBS (25 mM Tris, 150 mM NaCl, pH 7.25). The membrane was washed with TBS (3×). The biotinylated PSA capture agent was prepared at 0.1 μM in 0.5% milk in TBS+0.03% DMSO (v/v) and incubated over the membrane at 4° C. overnight. After washing with TBS (3×), the membrane was further subjected to 0.1 μg/mL HRP-conjugated Streptavidin (Abcam) in TBS containing 0.02% Tween20 (v/v) for 30 min at 4° C.

For assay [3], the target named is T1, free PSA. Nature of the assay: Sandwich ELISA with capture agent as detection agent, paired with PS6 capture antibody. Format: binding. How it is done:
MAXISORP™ microtiter plates were coated with anti-human PSA (PS6, Abcam) at 10 μg/mL in PBS pH 7.4 for 2 hours at room temperature. After washing each microwell with PBS (3×), the plate was filled with 5% non-fat dry milk in TBS (25 mM Tris, 150 mM NaCl, pH 7.25) and blocked for 2 h at room temperature. Serially diluted free PSA (Scripps Laboratories #P0725) in 1% BSA in TBS was incubated across the microtiter plate for 2 h at room temperature. The plate was washed with 1% BSA in TBS (5×), and then 2 μM biotinylated capture agent in 1% BSA in TBS+0.1% DMSO (v/v) was incubated for 1 hour at room temperature. After washing all microwells with 1% BSA in TBS (5×), 0.1 μg/mL Streptavidin Poly-HRP conjugate (Pierce, Ill.) in 1% BSA in TBS was incubated for 30 min at room temperature. The plate was washed with 1% BSA in TBS (10×), followed by TBS (2×), and then developed by adding QuantaRed™ Enhanced Chemifluorescent HRP Substrate (Pierce, Ill.). Using an excitation wavelength of 535 nm, fluorescent emission at 595 nm was recorded by Beckman Coulter DTX880 photometer (Brea, Calif.) as a function of target concentration. The titration curves were fit using a four-parameter regression curve fitting program (Origin 8.5, Northampton, Mass.). Assays were performed in triplicate.
For orientation: ELISA stands for enzyme-linked immunosorbent assay.

Assay [4] addresses T1, free PSA. Nature of the assay: Pull-down assay and Western blot. The assay is classed as binding. As to conditions: 1 μg free PSA in TBS buffer. How it is done: The pull-down assay assessed the specificity of a PSA capture agent by measuring its ability to purify a protein from complex media; bound to the protein in buffer or human serum in solution. The PSA/capture agent complex was then physically isolated from the sample with solid-phase affinity resins. The captured samples were separated by SDS-PAGE for Western blot analysis.
Pull-down detection of PSA was performed using a modified immunoprecipitation technique that incorporated PSA capture agent rather than antibody. […] A third sample contained biotinylated PSA capture agent (0.3-0.5 μg/mL) and 1 μg free PSA in 2 mL TBS, and similarly interacted at 4° C. overnight.
Proteins were captured by BSA-blocked Dynabeads® M-280 Streptavidin (Invitrogen, #112-05D) under rotation at 4° C. for 4 hours (50 μL of 50% slurry per pull-down condition). Proteins were eluted from beads in reducing Laemmli buffer, and beads were separated from the serum or buffer by DynaMag™-Spin magnet (Invitrogen, #123-20D). Samples were subjected to 4-20% SDS-PAGE separation and electrophoretically transferred to a nitrocellulose membrane in 25 mM Tris, 192 mM Glycine, pH 8.3, containing 20% (v/v) methanol (Bio-Rad Laboratories, Hercules, Calif.) at 100 V for 45 min. Following transfer, the nitrocellulose membrane was blocked at 4° C. for 2 hours in 5% non-fat dry milk in TBS. […]

T1 sequence (P07288 25-261): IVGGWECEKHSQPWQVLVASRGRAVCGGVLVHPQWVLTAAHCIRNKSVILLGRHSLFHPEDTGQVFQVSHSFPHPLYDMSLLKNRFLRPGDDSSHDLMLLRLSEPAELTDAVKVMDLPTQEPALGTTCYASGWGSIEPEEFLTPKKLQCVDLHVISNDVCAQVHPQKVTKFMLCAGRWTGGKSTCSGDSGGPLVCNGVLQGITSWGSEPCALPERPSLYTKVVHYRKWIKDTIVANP

On to `[Cl-].[Cl-].[Zn+2]` [Zn^2+, zinc chloride, reference compound], for which the “inhibition of PSA enzyme activity” value against free PSA [1] is “inhibits the enzyme activity of PSA”.
As to “biotin-PEG5-cyclic(CVFAHNYDYLVC) [Anchor Ligand]”, the “minimum peptide concentration affecting the activity” value at free PSA [1] was 0.250 µM.
With “biotin-PEG5-cyclic(CVFAHNYDYLVC)-Tz5-Gllffk [1,5Tz-biligand]”, at free PSA [1], the “minimum peptide concentration affecting the activity” value came out at 0.159 µM. In addition, at free PSA [2] (dot blot, triazole regioisomers), the “limit of detection compared to 1,4Tz-biligand” value was “improved limit of detection”. Also, the “lower limit of detection” value on free PSA [2] was 0.14 µg.
For “biotin-PEG5-cyclic(CVFAHNYDYLVC)-Tz5-Gllffk-Tz5-rrivk [PSA capture agent triligand]”, the “limit of quantitation (LOQ)” value on free PSA [3] (free PSA, sandwich ELISA with PS6 capture antibody) was approximately 4 ng/mL. The “enhanced sensitivity over the PSA capture agent biligand” value at free PSA [3] (sandwich ELISA) was more than 2 fold. On free PSA [2] (dot blot), the “performance compared to anti-human PSA monoclonal antibody PS1” value is on record as “superior performance” and the “sensitivity compared to commercial PSA monoclonal antibodies PS2, PS6” value was “less sensitive”. For the same molecule, the “lower limit of detection” value on free PSA [2] was 0.14 µg. Besides, on free PSA [4], the “pull-down detection of free PSA” value is “detected free PSA in buffer”.
On to “biotin-PEG5-cyclic(CVFAHNYDYLVC)-Tz-4-Gllffk [1,4Tz-biligand]”, for which, on free PSA [2], the “lower limit of detection” value turned out to be 0.28 µg.
